From US4075332A (priority 1976, dated 1978)
Read-outs that look alike come from different tables or passages of the source.

Columns and labels:
Lepidoptera = assay: Activity against Lepidoptera / pest spectrum (in words); format: in vivo
Cabbage looper [1] = assay: Field control of cabbage looper on collards (Example 28); format: in vivo; conditions: Table XVI; 1.5 lbs/acre; nil 5.3; higher ratings indicate more damage
Text: (§1) King Cole cabbage and Vates Collards were transplanted on Feb. 1. Cabbage treatments were made on 50 ft. rows and replicated 4 times. Collard treatments were made on 25 ft. rows and replicated 4 times. Collard and cabbage rows were placed side-by-side and were flanked by guard rows. Except for insecticide treatment, the plots were managed in accordance with recommended farming practice for the area. Chemicals were applied on April 3, 10, 17, 24, May 1, 8, 15, 22 and 29, and readings were made on June 1.

Corn earworm = assay: Field control of corn earworm on corn (Example 28); format: in vivo
Text: (§2) Corn plots were planted on March 22. Each treatment was made on a 50 ft. row flanked by guard rows. Treatments were replicated 4 times and the average rating is reported. Except for insecticide treatment, the plots were managed in accordance with recommended farming practice for the area.
Corn earworm applications were made during silking on May 29, June 1, 2, 3, 4, 5, 8, 9, 10, 11 and 12. Readings were made on June 15.

Root-knot nematode = conditions: in vivo
Mexican bean beetle [2] = assay: whole plant or invertebrate; conditions: Epilachna varivestis
Bean aphids [3] = assay: Aphid, Systemic; format: in vivo, bean aphid; conditions: Aphis fabae, 48 h, read-out: Mortality Produced, % - Bean Aphids Systemic
Method: (§3) In the insecticidal and miticidal tests, the experimental compounds were tested as aqueous emulsions. These emulsions were prepared by dissolving the compound in acetone and dispersing it in distilled water with Triton X-100, an alkylaryl polyether alcohol derived by the reaction of i-octylphenol with ethylene oxide, to give spray emulsions containing the desired concentrations of the compound. These emulsions were then used in standard laboratory tests described below.
Aphid, Systemic: Nasturtium plants infested with the bean aphid were treated by applying 20 ml. of the formulated test chemical to the soil. The degree of aphid control was rated after 2 days.

House fly [4] = conditions: in vivo, 48 h
Corn rootworm larvae [5] = assay: whole plant or invertebrate; conditions: soil, 120 h
Cabbage looper [6] = assay: Field control of cabbage looper on cabbage (Example 28); format: in vivo; conditions: Table XVI; 1.5 lbs/acre; nil 5.9; higher ratings indicate more damage
Text: as §1

Spider mites [7] = assay: Mite, Systemic; format: in vivo, two-spotted mite; conditions: Tetranychus urticae, read-out: Mortality Produced, % - Spider Mites Systemic
Method: as §3
Mite, Systemic: Bean plants infested with the two-spotted mites were treated by applying 20 ml. of the formulated test chemical to the soil.

Spider mites [8] = conditions: in vivo, 48 h
Fall armyworm = assay: Field control of fall armyworm on sweet corn (Example 28); format: in vivo
Method: as §2
Fall armyworm plots on sweet corn were treated on May 13, 20 and 27. Readings were made on May 29.

Mexican bean beetle [9] = conditions: in vivo
Bean aphids [10] = assay: whole plant or invertebrate; conditions: Aphis fabae, 48 h
in vivo = conditions: rat, po
Southern army worm = conditions: in vivo
House fly [11] = assay: whole plant or invertebrate; conditions: Musca domestica, 48 h
Spider mites [12] = assay: whole plant or invertebrate; conditions: Tetranychus urticae; for mortality at 10 ppm: read-out: Spider Mites Mortality,%
Corn rootworm larvae [13] = conditions: in vivo, 120 h
[14] = system: bean rust fungus (Uromyces Phaseoli); assay: Bean Rust eradicant test; format: in vivo; conditions: Table III; 200 ppm
Method: In these tests, the experimental compounds were tested in aqueous emulsions, prepared in the same manner as was previously described above with respect to the insecticidal and miticidal tests.
Pinto bean plants with fully expanded primary leaves were inoculated with spores of the bean rust fungus (Uromyces Phaseoli) and incubated for 24 hours. The test were then carried out as described above for Bean Powdery Mildew.

[15] = system: powdery mildew fungus (Erysiphe Polygoni); assay: Bean Powdery Mildew eradicant test; format: in vivo; conditions: Table III; 200 ppm
Bean aphids [16] = conditions: bean aphid, in vivo, 48 h
[17] = system: bean rust fungus (Uromyces Phaseoli); assay: Bean Rust systemic eradicant test; format: in vivo; conditions: Table III; 200 ppm
Method: Pinto bean plants were inoculated 24 hours prior to use as above and the soil in the pot was then treated with 20 ml. of an emulsion of the test chemical. The rest of the test and the evaluation were then carried out an above for Bean Powdery Mildew.

Sclerotium = Sclerotium soil fungicide test; format: in vivo; conditions: Table III; 100 lb/acre
Method: Sterilized soil was inoculated with Solerotium and placed into a 4-ounce "Dixie cup", and drenched with 20 ml. of an emulsion of the test chemical. The cup was then incubated for 2 days at 70° F. Thereafter, the amount of mycelial growth on the soil surface was rated and the control by the chemical estimated accordingly.

warm blooded animals = assay: Toxicity towards warm blooded animals (in words); format: in vivo; conditions: summary statements
Method: Each compound tested was administered orally by stomach tube to five to eight groups of five male albino rate of the Sprague Dawley strain, weighing 220 to 300 grams at various dosage levels. Following incubation, the animals were closely observed for mortality and toxic effects at intervals for 14 days. Statistical analysis of the mortality data was carried out to determine the median lethal dosages (LD50) according to the method of W. R. Thompson as described in the Journal Bact. Rev. in Vol. 11, pages 115-145 in 1947, utilizng the tables of H. J. Horn published in the Journal Biometrics, Vol. 12, page 311 in 1956. The LD50 dosages are expressed in mg weights of test material per kg weight of rat used.

[18] = system: insects, mites and nematodes; assay: Overall pesticidal activity in the greenhouse and laboratory tests (in words); format: in vivo
Method: In Examples 14-29 which follow, the new dithiophosphate compositions of the present invention were tested in the greenhouse and in the laboratory to determine their biological activity. Structurally related, known compounds, usually leading cmmercial compounds, were also tested side-by-side to determine the relative pesticidal effectiveness of the new compounds.
as §3

[19] = read-out: Mexican Bean Beetles Mortality,%
[20] = read-out: Mortality Produced at 50 ppm, % - Mexican Bean Beetles
[21] = read-out: Mortality Produced, % - Mex.Bean Beetle
[22] = read-out: Corn Rootworm Mortality, % at 2.5 ppm
[23] = read-out: Corn Rootworm Mortality,%
[24] = read-out: Bean Aphids Mortality,%
[25] = read-out: Mortality Produced at 50 ppm, % - Bean Aphids
[26] = read-out: Mortality Produced, % -
[27] = read-out: Mortality Produced, % - Bean Aphids Contact
[28] = read-out: Mortality Produced at 50 ppm, % - Houseflies
[29] = read-out: Mortality Produced, % - House Flies
[30] = 48 h, read-out: Mortality Produced, % - Spider Mites Contact
[31] = read-out: Mortality Produced at 50 ppm, % - Spider Mites

In the case of `CCCSP(=O)(OCC)SCC(C)SC(C)=O` (centres unmarked) [Example 13, O:ETHYL S-1-PROPYL S-2-ACETYLTHIOPROPYL DITHIOPHOSPHATE], the “pesticidal spectrum / activity against Lepidoptera” value (Lepidoptera) was “shows the broad pesticidal spectrum and the specific activity against Lepidoptera”.

With `CCCSP(=O)(OCC)SCC(C)SC` (centres unmarked) [Example 32, O-Ethyl S-1-Propyl S'-2-Methylthiopropyl dithiophosphate] the “Cabbage Looper Harvest Rating - Collards” value (Cabbage looper [1]) was 2.0, the “control of corn earworms (in words)” value (Corn earworm; 0.5 lbs per acre) was “excellent control” and the “Corn Earworm, % Clean Ears” value (Corn earworm; Table XVI, 0.5 lbs/acre, nil 36) was 94%. For the same compound, the “Nematode Control,%” value (Root-knot nematode) was 100%, the “Nematodes Control % at 25 lb/acre” value (Root-knot nematode) was 100% and the mortality at 50 ppm (Mexican bean beetle [2]; [19]) was 100%. For the same compound, the mortality at 50 ppm (Mexican bean beetle [2]; [20]) was 100%, the mortality at 50 ppm (Mexican bean beetle [2]; [21]) was 100% and the mortality at 250 ppm (Mexican bean beetle [2]; [21]) was 100%. The mortality at 50 ppm (Bean aphids [3]) was 0%, the mortality at 250 ppm (Bean aphids [3]) was 100% and the “Mortality Produced, % - House Flies” value (House fly [4]) was 100%. The mortality at 2.5 ppm (Corn rootworm larvae [5]; [22]) was 100%, the mortality at 2.5 ppm (Corn rootworm larvae [5]; [23]) was 100% and the “Cabbage Looper Harvest Rating - Cabbage” value (Cabbage looper [6]) was 3.8. The mortality at 50 ppm (Spider mites [7]) was 100%, the mortality at 250 ppm (Spider mites [7]) was 100% and the “Mortality Produced, % - Spider Mites Contact” value (Spider mites [8]; two-spotted spider mite) was 100%. The “Fall Armyworm Injury Free Stalks of Sweet Corn, %” value (Fall armyworm; Table XVI, 0.75 lbs/acre, nil 67) was 91%, the “control of fall armyworm (in words)” value (Fall armyworm; sweet corn, 0.75 lbs. per acre) was “well controlled” and the “Mortality Produced, % - Mex.Bean Beetle” value (Mexican bean beetle [9]) was 100%. The mortality at 50 ppm (Bean aphids [10]; [24]) was 100%, the mortality at 50 ppm (Bean aphids [10]; [25]) was 100% and the mortality at 50 ppm (Bean aphids [10]; [26]) was 100%. For the same compound, the mortality at 250 ppm (Bean aphids [10]; [26]) was 100%, the mortality at 50 ppm (Bean aphids [10]; [27]) was 100% and the mortality at 250 ppm (Bean aphids [10]; [27]) was 100%. The LD50 at 336 h (in vivo) was 109 mg/kg, the “S.Armyworm Mortality,%” value (Southern army worm) was 100% and the “Mortality Produced at 50 ppm, % - Southern Army Worm” value (Southern army worm; southern armyworm) was 100%. For the same compound, the “Mortality Produced, % - S.Army Worm” value (Southern army worm; southern armyworm) was 100%, the mortality at 50 ppm (House fly [11]; [28]) was 100% and the mortality at 50 ppm (House fly [11]; [29]) was 100%. It also gave a mortality at 250 ppm (House fly [11]; [29]) of 100%, a mortality at 50 ppm (Spider mites [12]; [30]) of 100% and a mortality at 250 ppm (Spider mites [12]; [30]) of 100%. For the same compound, the mortality at 50 ppm (Spider mites [12]; [31]) was 100% and the mortality at 10 ppm (Spider mites [12]) was 100%.

In the case of `CCCSP(=O)(OCC)SCC(C)SCC` (centres unmarked) [Example 33, O-Ethyl S-1-Propyl S'-2-Ethylthiopropyl Dithiophosphate], the “Pest Control, % - Corn Rootworm (0.25 ppm)” value (Corn rootworm larvae [13]) was 100%, the “Nematode Control,%” value (Root-knot nematode) was 100% and the “Pest Control, % - Nematode Control (25 lb/acre)” value (Root-knot nematode) was 100%. The mortality at 50 ppm (Mexican bean beetle [2]; [19]) was 70%, the mortality at 2.5 ppm (Corn rootworm larvae [5]; [23]) was 100% and the “Control of Foliar Fungi, % - Bean Rust Eradicant” value [14] was 80%. For the same compound, the “Control of Foliar Fungi, % - Bean Mildew Eradicant” value [15] was 70%, the “Pest Control, % - Spider Mites Contact” value (Spider mites [8]; spider mite) was 100% and the “Pest Control, % - Bean Aphids Contact” value (Bean aphids [16]) was 100%. For the same compound, the “Control of Foliar Fungi, % - Bean Rust Systemic Eradicant” value [17] was 90%, the “Pest Control, % - Mex. Bean Beetle” value (Mexican bean beetle [9]) was 100% and the mortality at 50 ppm (Bean aphids [10]; [24]) was 100%. For the same compound, the LD50 at 336 h (in vivo) was 214 mg/kg, the “Control of Sclerotium, %” value (Sclerotium) was 60% and the “S.Armyworm Mortality,%” value (Southern army worm) was 100%. It also gave a mortality at 10 ppm (Spider mites [12]) of 100%.

In the case of `CCCSC(C)CSP(=O)(OCC)SCCC` (centres unmarked) [Example 34, O-Ethyl S-1-Propyl S'-2-n-Propylthiopropyl Dithiophosphate], the “toxicity (in words)” value (warm blooded animals) was “particularly low toxicity”, the “Nematode Control,%” value (Root-knot nematode) was 100% and the mortality at 50 ppm (Mexican bean beetle [2]; [19]) was 100%. The mortality at 2.5 ppm (Corn rootworm larvae [5]; [23]) was 100%, the mortality at 50 ppm (Bean aphids [10]; [24]) was 100% and the LD50 at 336 h (in vivo) was 422 mg/kg. For the same compound, the “S.Armyworm Mortality,%” value (Southern army worm) was 100% and the mortality at 10 ppm (Spider mites [12]) was 100%.

In the case of `CCCCCCSC(C)CSP(=O)(OCC)SCCC` (centres unmarked) [Example 36, O-Ethyl S-1-Propyl S'-2-n-Hexylthiopropyl Dithiophosphate], the “Nematode Control,%” value (Root-knot nematode) was 10%, the mortality at 50 ppm (Mexican bean beetle [2]; [19]) was 100% and the mortality at 2.5 ppm (Corn rootworm larvae [5]; [23]) was 0%. For the same compound, the “pesticidal activity (in words)” value ([18]; summary statements) was “decreased level of activity”, the mortality at 50 ppm (Bean aphids [10]; [24]) was 50% and the “S.Armyworm Mortality,%” value (Southern army worm) was 100%. For the same compound, the mortality at 10 ppm (Spider mites [12]) was 90%.

With `CCCSP(=O)(OCC)SCC(SC)C(C)(C)C` (centres unmarked) [Example 39, O-Ethyl S-1-Propyl S'-2-Methylthio-3,3-Dimethylbutyl Dithiophosphate] the mortality at 50 ppm (Mexican bean beetle [2]; [20]) was 0%, the mortality at 2.5 ppm (Corn rootworm larvae [5]; [22]) was 80% and the “insecticidal activity at 50 ppm (in words)” value ([18]; 50 ppm) was “very little insecticidal activity”. The mortality at 50 ppm (Bean aphids [10]; [25]) was 30%, the “Mortality Produced at 50 ppm, % - Southern Army Worm” value (Southern army worm; southern armyworm) was 0% and the mortality at 50 ppm (House fly [11]; [28]) was 20%. It also gave a mortality at 50 ppm (Spider mites [12]; [31]) of 100%.
